From publication PMC4770308, “Discovery of a Chemical Tool Inhibitor Targeting the Bromodomains of TRIM24 and BRPF” (Journal of Medicinal Chemistry, 2015)

Legend:
TRIM24 bromodomain = molecular target: T1, TRIM24 bromodomain (Homo sapiens, UniProt O15164); experiment: AlphaScreen assay, TRIM24 bromodomain; type: binding; conditions: 6-methoxy (R2) analogues
T1 sequence (O15164 899-1004 limits assumed): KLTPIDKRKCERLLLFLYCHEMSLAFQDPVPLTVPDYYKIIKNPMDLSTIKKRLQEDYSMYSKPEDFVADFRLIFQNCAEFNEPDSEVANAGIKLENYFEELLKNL
Method: However, the most interesting compounds of this series (3–5) also had 3–4 μM activity against TRIM24, which prompted us to explore this scaffold for the development of TRIM24 inhibitors (Table 1).

[1] = molecular target: T2, PHD/bromodomain of TRIM24 (Homo sapiens, UniProt O15164); experiment: Isothermal titration calorimetry, TRIM24; conditions: single binding site model
T2 construct: His6 (N, cleaved yes); SUMO-1 (N, cleaved yes); made in house; host or cells: E. coli BL21(DE3)-R3-pRARE2
T2 sequence (O15164 825-1006): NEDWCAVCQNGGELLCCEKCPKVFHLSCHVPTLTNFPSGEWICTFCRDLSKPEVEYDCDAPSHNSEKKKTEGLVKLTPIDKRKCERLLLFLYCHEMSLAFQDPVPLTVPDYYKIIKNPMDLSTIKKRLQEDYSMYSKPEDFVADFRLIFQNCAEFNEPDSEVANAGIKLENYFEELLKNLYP

[2] = molecular target: T3, BRPF1 bromodomain (BRPF1B) (Homo sapiens, UniProt P55201); experiment: Isothermal titration calorimetry, BRPF1; conditions: single binding site model
T3 sequence (P55201 628-732 limits assumed): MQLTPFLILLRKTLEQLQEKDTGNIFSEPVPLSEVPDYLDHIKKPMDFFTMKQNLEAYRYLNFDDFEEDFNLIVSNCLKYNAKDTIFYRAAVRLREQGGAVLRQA

BRD1 (BRPF2) bromodomain = molecular target: T4, BRD1 (BRPF2) bromodomain (Homo sapiens, UniProt O95696); experiment: Isothermal titration calorimetry, BRD1; conditions: single binding site model
T4 sequence (O95696 562-666 limits assumed): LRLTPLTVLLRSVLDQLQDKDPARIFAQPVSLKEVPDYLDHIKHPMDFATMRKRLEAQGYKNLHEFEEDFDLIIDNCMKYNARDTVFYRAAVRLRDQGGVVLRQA

[3] = test system: panel of 45 human bromodomains; experiment: Temperature shift assay, bromodomain selectivity panel; type: binding; conditions: 45 bromodomains; ΔTm smaller than 1 degree not considered significant
[4] = molecular target: T5, full length TRIM24 fused to GFP (Homo sapiens, UniProt O15164); experiment: FRAP assay, TRIM24; type: cell-based; conditions: 1 μM, compared with N980F mutant
T5 sequence (O15164 1-1050): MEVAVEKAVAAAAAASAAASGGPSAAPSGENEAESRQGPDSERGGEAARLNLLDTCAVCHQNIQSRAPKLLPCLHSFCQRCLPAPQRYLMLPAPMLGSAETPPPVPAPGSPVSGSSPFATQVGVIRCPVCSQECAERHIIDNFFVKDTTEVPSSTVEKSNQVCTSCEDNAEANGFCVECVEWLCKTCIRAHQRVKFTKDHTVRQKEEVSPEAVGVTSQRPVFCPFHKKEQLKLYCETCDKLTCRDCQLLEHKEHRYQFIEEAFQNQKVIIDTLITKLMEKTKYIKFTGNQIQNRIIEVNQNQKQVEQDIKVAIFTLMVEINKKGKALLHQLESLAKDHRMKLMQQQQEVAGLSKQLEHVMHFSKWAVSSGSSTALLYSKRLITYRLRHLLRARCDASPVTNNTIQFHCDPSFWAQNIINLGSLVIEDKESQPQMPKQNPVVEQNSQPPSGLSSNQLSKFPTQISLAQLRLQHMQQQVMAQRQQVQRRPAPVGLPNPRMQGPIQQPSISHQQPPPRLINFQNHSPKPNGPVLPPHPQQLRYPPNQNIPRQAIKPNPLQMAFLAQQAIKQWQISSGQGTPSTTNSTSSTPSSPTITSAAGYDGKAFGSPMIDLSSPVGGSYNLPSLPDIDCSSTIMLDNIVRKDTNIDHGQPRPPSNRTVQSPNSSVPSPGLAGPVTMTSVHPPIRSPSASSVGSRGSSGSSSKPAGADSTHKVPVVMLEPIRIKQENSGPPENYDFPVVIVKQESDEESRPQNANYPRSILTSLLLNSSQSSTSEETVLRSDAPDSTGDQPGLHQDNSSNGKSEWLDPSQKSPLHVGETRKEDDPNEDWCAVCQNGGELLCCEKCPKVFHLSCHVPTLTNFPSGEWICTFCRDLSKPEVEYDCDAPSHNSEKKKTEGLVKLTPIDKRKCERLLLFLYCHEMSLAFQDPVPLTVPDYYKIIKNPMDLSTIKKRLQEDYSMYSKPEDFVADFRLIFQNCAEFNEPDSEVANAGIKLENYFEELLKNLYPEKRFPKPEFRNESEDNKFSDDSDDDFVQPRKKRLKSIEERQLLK

[5] = molecular target: T6, triplicated BRPF1B bromodomain construct with nuclear localization signal (Homo sapiens, UniProt P55201); experiment: FRAP assay, BRPF1B; type: cell-based; conditions: with SAHA
T6 sequence (P55201 628-732 limits assumed): T3 sequence (P55201 628-732 limits assumed)

[6] = test system: panel of diverse cancer cell lines (MCF-7, RKO, MM1S, RCH-ACH, JJN-3); experiment: Cytotoxicity assay (CellTiter-Glo), cancer cell line panel; type: cell-based; conditions: 72 hours, 5 x E-05 M to 8 x E-08 M
Method: (§1) A more comprehensive evaluation of the role of TRIM24 in cancer cell proliferation and chromatin biology would require the development of a tool compound with improved selectivity.
(§2) Calorimetric experiments were performed on a VPqITC microqcalorimeter (MicroCalTM, LLC Northampton, MA). Protein solutions were buffer exchanged by gel filtration or dialysis into buffer (20 mM Hepes pH 7.5, 150 mM NaCl, and 0.5 mM tris (2qcarboxyethyl) phosphine (TCEP)]. All measurements were carried out at 293.15 K while stirring at 286 rpm. The micro syringe was loaded with a protein solution of 250 µM, the compound solution was prepared at 20 µM and 2mL for the cell. All injections were performed using an initial injection of 2 µl followed by 34 injections of 8 µl with a duration of 16 sec per injection and a spacing of 240 sec between injection. The data were analysed with the MicroCal ORIGIN software package employing a single binding site model. The first data point was excluded from the analysis.
(§3) Thermodynamic parameters were calculated (∆G = ∆H q T∆S = qRTlnKB where ∆G, ∆H and ∆S are the changes in free energy, enthalpy and entropy of binding, respectively).
(§4) Temperature shift assays have been carried out as described in Fedorov et al. 2.
(§5) Fluorescence recovery after photobleaching (FRAP)
(§6) The TRIM24 FRAP assay has been carried out as described in Philpott et al.3. […]

[7] = test system: MCF-7 breast cancer cell line; experiment: Cytotoxicity assay (CellTiter-Glo), MCF-7; type: cell-based; conditions: 72 hours, concentration range tested
Method: as §1, §2, §3, §4, §5, §6

SMILES	activity against TRIM24 (in words) (TRIM24 bromodomain)	N (ITC stoichiometry), TRIM24 [1]	N (ITC stoichiometry), BRPF1B [2]	N (ITC stoichiometry), BRD1 (BRD1 (BRPF2) bromodomain)	selectivity in temperature shift (ΔTm) panel (in words) [3]	fluorescent recovery half-time, TRIM24 FRAP (in words) [4]	fluorescent recovery time, BRPF1B FRAP (in words) [5]	cytotoxicity in cancer cell lines (in words) [6]	sensitivity of MCF-7 (in words) [7]
COc1cc2c(cc1NS(=O)(=O)c1ccc(Br)cc1C)n(C)c(=O)n2C [Compound 8]	lost activity against TRIM24	–	–	–	–	–	–	–	–
COc1ccc(Oc2cc3c(cc2NS(=O)(=O)c2ccc(OC)c(OC)c2)n(C)c(=O)n3C)cc1 [Compound 34]	–	0.923 ± 0.003	0.996 ± 0.002	1.127 ± 0.02	excellent selectivity of 34 for BRPF1B/2 and TRIM24	effectively reduced fluorescent recovery half-time	reduced recovery times	no significant cytotoxicity	resistant
